Patent US11000033B2, “Ketone or oxime compound, and herbicide” (NISSAN CHEMICAL CORPORATION, priority 2014, dated 2021)

Tests used:
Type in all cases: in vivo
Galium spurium = experiment: Test Example 4: herbicidal effect by soil treatment (symbol Q); conditions: for Q: Galium spurium, herbicidal effect grade: 320 g/ha
Summary of the method: (§1)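 Seeds were sown in sterilized diluvial soil, covered with about 1.5 cm of soil, and the soil surface was sprayed with a water-diluted emulsion of the compound at a predetermined rate. Plants grew in a greenhouse at 25° C. to 30° C.; effects were scored visually 3 weeks after application.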

Monochoria vaginalis = experiment: Test Example 2: herbicidal activity, application during weed generation in submerged conditions (symbol C); conditions: Table 23; application herbicide amount 320 g/ha; grade 0-5 by criteria of Test Example 1
Summary of the method: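 Seeds sown in flooded alluvial soil (4 cm water) were grown in a 25-30° C greenhouse. At the one- to two-leaf stage, diluted emulsion of compound was applied to the water surface at a predetermined rate. Effect was scored 3 weeks later.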

Stellaria media [1] = experiment: Test Example 5: herbicidal effect by foliage application, plastic box (symbol P); conditions: 320 g/ha, 3 weeks after application
Summary of the method: (§2)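 Herbicide, formulated as an emulsion and diluted in water, is sprayed onto the aerial parts of 14-day seedlings. These were grown at 25° C. to 30° C. in sterilized diluvial soil; effects are graded after 3 weeks.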

transplanted rice plant = experiment: Test Example 1: effect on crop, application before weed generation in submerged conditions (symbol a); conditions: application herbicide amount 320 g/ha
Summary of the method: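 Rice at 2.5 leaf stage transplanted into submerged soil (4 cm depth) sown with three weed species; herbicide applied before weed emergence.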

Stellaria media [2] = experiment: Test Example 4: herbicidal effect by soil treatment (symbol P); conditions: for P: Stellaria media, herbicidal effect grade: 320 g/ha
Summary of the method: as §1

[3] = test system: Echinochloa crus-galli var. crus-galli; experiment: Test Example 4: herbicidal effect by soil treatment (symbol H); conditions: for H: Echinochloa crus-galli var. crus-galli, herbicidal effect grade: 320 g/ha
Summary of the method: as §1

Digitaria ciliaris = experiment: Test Example 5: herbicidal effect by foliage application, plastic box (symbol F); conditions: 320 g/ha, 3 weeks after application
Summary of the method: as §2

beet = experiment: Test Example 4: effect on crop by soil treatment (symbol f); conditions: for f: beet, effect grade on crop: 320 g/ha
Summary of the method: (§3)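 Soil-treatment setup: crop and weed seeds were spot-sown into sterilized diluvial soil, then buried beneath approximately 1.5 cm of it, and the boxes were housed in a 25–30° C. greenhouse.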

rice plant = experiment: Test Example 5: effect on crop by foliage application, plastic box (symbol b); conditions: 320 g/ha, 3 weeks after application
Summary of the method: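 Crop and weed seeds sown in spots in sterilized diluvial soil in plastic boxes and covered with about 1.5 cm soil. Plants raised in a greenhouse at 25° C. to 30° C. for foliar application.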

Abutilon theophrasti = experiment: Test Example 5: herbicidal effect by foliage application, plastic box (symbol M); conditions: 320 g/ha, 3 weeks after application
Summary of the method: as §2

Avena fatua = experiment: Test Example 5: herbicidal effect by foliage application, plastic box (symbol I); conditions: 320 g/ha, 3 weeks after application
Summary of the method: as §2

rice = experiment: Test Example 4: effect on crop by soil treatment (symbol b); conditions: for b: directly sowed rice plant, effect grade on crop: 320 g/ha
Summary of the method: as §3

Setaria viridis = experiment: Test Example 5: herbicidal effect by foliage application, plastic box (symbol G); conditions: 320 g/ha, 3 weeks after application
Summary of the method: as §2

Amaranthus retroflexus = experiment: Test Example 4: herbicidal effect by soil treatment (symbol N); conditions: for N: Amaranthus retroflexus, herbicidal effect grade: 320 g/ha
Summary of the method: as §1

[4] = application herbicide amount 320 g/ha

## CC(CC1CC(O)=C(c2c(C)cc(C)cc2C)C1=O)=NOCc1ccc(F)cc1 (centres unmarked) [1-136]
Galium spurium
  Q: Galium spurium, herbicidal effect grade: 0 (Herbicidal ratio of 5% or lower (almost no effect))
Monochoria vaginalis
  Herbicidal effect grade, C: Monochoria vaginalis: 5 (Herbicidal ratio of 90% or more (almost completely withered))
Stellaria media [1]
  P: Stellaria media, herbicidal effect (criteria 0-5): 1 (Herbicidal ratio of 5% or higher and lower than 20%)
Transplanted rice plant
  Effect grade on crop, a: transplanted rice plant: 5 (Herbicidal ratio of 90% or more (almost completely withered))
Stellaria media [2]
  P: Stellaria media, herbicidal effect grade: 0 (Herbicidal ratio of 5% or lower (almost no effect))
[3]
  H: Echinochloa crus-galli var. crus-galli, herbicidal effect grade: 5 (Herbicidal ratio of 90% or more (almost completely withered))
Digitaria ciliaris
  F: Digitaria ciliaris, herbicidal effect (criteria 0-5): 5 (Herbicidal ratio of 90% or more (almost completely withered))
beet
  f: beet, effect grade on crop: 0 (Herbicidal ratio of 5% or lower (almost no effect))
Rice plant
  b: directly sowed rice plant, effect on crop (criteria 0-5): 5 (Herbicidal ratio of 90% or more (almost completely withered))
Abutilon theophrasti
  M: Abutilon theophrasti, herbicidal effect (criteria 0-5): 3 (Herbicidal ratio of 40% or higher and lower than 70%)
Avena fatua
  I: Avena fatua, herbicidal effect (criteria 0-5): 4 (Herbicidal ratio of 70% or higher and lower than 90%)
rice
  b: directly sowed rice plant, effect grade on crop: 2 (Herbicidal ratio of 20% or higher and lower than 40%)
Setaria viridis
  G: Setaria viridis, herbicidal effect (criteria 0-5): 5 (Herbicidal ratio of 90% or more (almost completely withered))
Amaranthus retroflexus
  N: Amaranthus retroflexus, herbicidal effect grade: 0 (Herbicidal ratio of 5% or lower (almost no effect))

## CC#Cc1cc(C)c(C2=C(O)CC(CC(=NOCCOC)C(C)C)C2=O)c(C)c1 (centres unmarked) [9-023]
Galium spurium; [4]
  Herbicidal effect grade, Q: Galium spurium: 0 (Herbicidal ratio of 5% or lower (almost no effect))
Monochoria vaginalis
  Herbicidal effect grade, C: Monochoria vaginalis: 1 (Herbicidal ratio of 5% or higher and lower than 20%)
Stellaria media [1]
  P: Stellaria media, herbicidal effect grade: 3 (Herbicidal ratio of 40% or higher and lower than 70%)
Transplanted rice plant
  a (transplanted rice plant) effect on crop grade: 5 (Herbicidal ratio of 90% or more (almost completely withered))
Stellaria media [2]; [4]
  Herbicidal effect grade, P: Stellaria media: 0 (Herbicidal ratio of 5% or lower (almost no effect))
[3]; [4]
  Herbicidal effect grade, H: Echinochloa crus-galli var. crus-galli: 5 (Herbicidal ratio of 90% or more (almost completely withered))
Digitaria ciliaris
  F: Digitaria ciliaris, herbicidal effect grade: 5 (Herbicidal ratio of 90% or more (almost completely withered))
beet; [4]
  Effect on crop grade, f: beet: 0 (Herbicidal ratio of 5% or lower (almost no effect))
Rice plant
  b: directly sowed rice plant, effect on crop grade: 5 (Herbicidal ratio of 90% or more (almost completely withered))
Abutilon theophrasti
  M: Abutilon theophrasti, herbicidal effect grade: 0 (Herbicidal ratio of 5% or lower (almost no effect))
Avena fatua
  I: Avena fatua, herbicidal effect grade: 4 (Herbicidal ratio of 70% or higher and lower than 90%)
rice; [4]
  Effect on crop grade, b: directly sowed rice plant: 5 (Herbicidal ratio of 90% or more (almost completely withered))
Setaria viridis
  G: Setaria viridis, herbicidal effect grade: 5 (Herbicidal ratio of 90% or more (almost completely withered))
Amaranthus retroflexus; [4]
  Herbicidal effect grade, N: Amaranthus retroflexus: 5 (Herbicidal ratio of 90% or more (almost completely withered))

## CON=C(C)CC1CC(OC(=O)N(C)C)=C(c2c(C)cc(C)cc2C)C1=O (centres unmarked) [1-108]
Galium spurium
  Q: Galium spurium, herbicidal effect grade: 0 (Herbicidal ratio of 5% or lower (almost no effect))
Monochoria vaginalis
  Herbicidal effect grade, C: Monochoria vaginalis: 1 (Herbicidal ratio of 5% or higher and lower than 20%)
Stellaria media [1]
  P: Stellaria media, herbicidal effect (criteria 0-5): 3 (Herbicidal ratio of 40% or higher and lower than 70%)
Transplanted rice plant
  Effect grade on crop, a: transplanted rice plant: 5 (Herbicidal ratio of 90% or more (almost completely withered))
Stellaria media [2]
  P: Stellaria media, herbicidal effect grade: 0 (Herbicidal ratio of 5% or lower (almost no effect))
[3]
  H: Echinochloa crus-galli var. crus-galli, herbicidal effect grade: 5 (Herbicidal ratio of 90% or more (almost completely withered))
Digitaria ciliaris
  F: Digitaria ciliaris, herbicidal effect (criteria 0-5): 5 (Herbicidal ratio of 90% or more (almost completely withered))
beet
  f: beet, effect grade on crop: 0 (Herbicidal ratio of 5% or lower (almost no effect))
Rice plant
  b: directly sowed rice plant, effect on crop (criteria 0-5): 5 (Herbicidal ratio of 90% or more (almost completely withered))
Abutilon theophrasti
  M: Abutilon theophrasti, herbicidal effect (criteria 0-5): 4 (Herbicidal ratio of 70% or higher and lower than 90%)
Avena fatua
  I: Avena fatua, herbicidal effect (criteria 0-5): 5 (Herbicidal ratio of 90% or more (almost completely withered))
rice
  b: directly sowed rice plant, effect grade on crop: 5 (Herbicidal ratio of 90% or more (almost completely withered))
Setaria viridis
  G: Setaria viridis, herbicidal effect (criteria 0-5): 5 (Herbicidal ratio of 90% or more (almost completely withered))
Amaranthus retroflexus
  N: Amaranthus retroflexus, herbicidal effect grade: 0 (Herbicidal ratio of 5% or lower (almost no effect))

## CON=C(C)CC1CC(OC(=O)c2cc(C)on2)=C(c2c(C)cc(C)cc2C)C1=O (centres unmarked) [1-100]
Galium spurium
  Q: Galium spurium, herbicidal effect grade: 0 (Herbicidal ratio of 5% or lower (almost no effect))
Monochoria vaginalis
  Herbicidal effect grade, C: Monochoria vaginalis: 3 (Herbicidal ratio of 40% or higher and lower than 70%)
Stellaria media [1]
  P: Stellaria media, herbicidal effect (criteria 0-5): 0 (Herbicidal ratio of 5% or lower (almost no effect))
Transplanted rice plant
  Effect grade on crop, a: transplanted rice plant: 5 (Herbicidal ratio of 90% or more (almost completely withered))
Stellaria media [2]
  P: Stellaria media, herbicidal effect grade: 0 (Herbicidal ratio of 5% or lower (almost no effect))
[3]
  H: Echinochloa crus-galli var. crus-galli, herbicidal effect grade: 5 (Herbicidal ratio of 90% or more (almost completely withered))
Digitaria ciliaris
  F: Digitaria ciliaris, herbicidal effect (criteria 0-5): 5 (Herbicidal ratio of 90% or more (almost completely withered))
beet
  f: beet, effect grade on crop: 0 (Herbicidal ratio of 5% or lower (almost no effect))
Rice plant
  b: directly sowed rice plant, effect on crop (criteria 0-5): 5 (Herbicidal ratio of 90% or more (almost completely withered))
Abutilon theophrasti
  M: Abutilon theophrasti, herbicidal effect (criteria 0-5): 4 (Herbicidal ratio of 70% or higher and lower than 90%)
Avena fatua
  I: Avena fatua, herbicidal effect (criteria 0-5): 5 (Herbicidal ratio of 90% or more (almost completely withered))
rice
  b: directly sowed rice plant, effect grade on crop: 5 (Herbicidal ratio of 90% or more (almost completely withered))
Setaria viridis
  G: Setaria viridis, herbicidal effect (criteria 0-5): 5 (Herbicidal ratio of 90% or more (almost completely withered))
Amaranthus retroflexus
  N: Amaranthus retroflexus, herbicidal effect grade: 2 (Herbicidal ratio of 20% or higher and lower than 40%)
